Data: a melting point compilation (Tetko et al.; mined from patent text by program, amines drawn as free bases though some values may be those of a salt)

SMILES | melting point
CCCCC1=C(C=Cc2ccc(N(CCCC)CCCC)cc2OC)CC(C)(C)CC1=CC=CC1=C(C#N)C(=C(C#N)C#N)OC1(c1ccccc1)C(F)(F)F (stereo not given) | 109 to 113 °C
Nc1c(C(=O)c2ccccc2)[nH]c2cc(Cl)ccc12 | 128 to 130 °C
COC(=O)C(NS(=O)(=O)Cc1c(Cl)c(C)cc2nc(OC)c(OC)nc12)c1ccccc1 (stereo not given) | 214 to 217 °C
C=C1CC2CC(O)CCC2(C)C2CCC3(C)C(C(C)CCC(=O)O)CCC3C12 (stereo not given) | 104 to 105 °C
O=C(O)C(CCC1=CCCCC1)Oc1ccc(-c2ccc(Cl)s2)cc1 (stereo not given) | 136 to 138 °C
COCCOc1cc2ncnc(C3C(=O)N(C=O)c4ccccc43)c2cc1OC (stereo not given) | 228 to 230 °C
O=c1[nH]c2cc(F)c(Cl)c(F)c2[nH]c1=O | > 250 °C
CC(=O)ON=C(c1ccc(OC(C)=O)cc1O)c1ccccc1F | 132 to 134 °C
CCCCSc1ccc(C(=O)Nc2ccc3cc(CN4CCCC4)cnc3c2C)cc1 | 147 °C
O=C(COC(=O)CCCc1ccc(N(CCCl)CCCl)cc1)NCCCC(O)(P(=O)(O)O)P(=O)(O)O | > 260 °C
Cc1ccc(S(=O)(=O)O[C@H]2CCN(S(=O)(=O)c3ccc(C)cc3)C2)cc1 | 110 °C
Cc1noc(C)c1C(=O)Nc1ccc(-n2nc(C(F)(F)F)cc2C(F)(F)F)cc1 | 179 to 180 °C
O=C(O)c1ccccc1OCCOc1cccc2ccccc12 | 205 to 207 °C
CCOc1nn(CCOc2ccc3ccccc3c2CC(=O)O)cc1C(=O)NCc1ccc(Cl)cc1Cl | 199 to 201 °C
OCCCCC(F)(F)C(F)(F)CCO | 52 to 55 °C
Cc1nc(-c2nc(-c3ccc(Cl)cc3)c(CCCCCO)o2)c[nH]1 | 94 to 95 °C
Cn1c(-c2ccc(Cl)c(S(N)(=O)=O)c2)csc1=Nc1ccc(O)cc1 | 274 °C
O=C1CC(C(F)(F)F)Oc2cc(Cl)c(Cl)cc21 (stereo not given) | 94.5 to 97 °C
N#CC1C2OCC(O2)C(OCc2ccccc2)C1O (stereo not given) | 152 to 156 °C
C(#CCOCC#CCCn1cnc2cnc3ccccc3c21)CCn1cnc2cnc3ccccc3c21 | 124 to 126 °C
Cc1cc(Cl)ccc1NC(=O)C(=O)N1CCC(Cc2ccccc2)CC1 | 105 to 108 °C
COC(=O)C(=O)c1ccc(OCC(=O)c2ccc3ccccc3c2)cc1 | 120 to 121 °C
COC(=O)COc1ccc(C(=O)CCCl)cc1 | 89 to 90 °C
CC(C)c1nc(C(C)C)c(CSc2ccc(F)cc2)c(-c2ccc(F)cc2)c1CO | 119 to 121 °C

SMILES | melting point
CCN(CC)c1ccc(-c2cc(-c3ccc(C(=O)O)cc3)ccc2CCCO)cc1C(C)(C)C | 95 °C
COc1cccc(N2CCN(C(=O)NCCN(C)C)CC2)c1 | 70 to 72 °C
COCCNC(=O)c1cc(C(=O)OC)c2cc(Cc3ccc(F)cc3)cnc2c1O | 165 to 167 °C
Cc1nc(N2CCCC(Cc3ccc(C(F)(F)F)cc3)C2=O)sc1C(=O)NCc1cccc(F)c1 (stereo not given) | 177 to 178 °C
COc1ccc(C2=NN(c3ccc(Br)cc3)C(=O)C(C)(C)C2)cc1OC | 123 to 124 °C
COc1ccc2c(c1)c(Cc1cc(=O)n(-c3ccccc3)[nH]1)c(C)n2C(=O)c1ccc(Cl)cc1 | 148 to 150 °C
O=C(N[C@@H]1CCc2cccc(N3CCNCC3)c2C1)c1ccc(N2CCOCC2)cc1 | 202 to 203 °C
CCCN(CCC)Cc1cnc(-c2ncn3c2CN(C)C(=O)c2c-3ccc(F)c2Cl)o1 | 110 to 112 °C
O=C1NC2(CCC(F)(F)CC2)C(O)=C1c1cc(-c2ccc(Cl)cc2)ccc1Cl | 156 °C
N#CN=C(Nc1ccc(C#N)cc1O)Nc1cccc(Cl)c1Cl | 155 to 156 °C
O=C(CNC(=S)c1cccnc1)NC1CC1 | 152 to 153 °C
CNC(=O)c1sc(NC(C)=O)nc1CCc1ccc(NC(NC(=O)OC(C)(C)C)NC(=O)OC(C)(C)C)cc1 | 245 to 246 °C
CC(C)(C)OC(=O)NCCCn1c2c(c3ccc(NC(=O)C(=O)O)cc3c1=O)C(=O)c1ccccc1-2 | 267 to 268 °C
COc1ccc2[nH]c(S(=O)Cc3cc(N4CCCCC4)c(Br)cn3)nc2c1 (stereo not given) | 114 to 118 °C
CNC(=O)c1ccc(Cl)nc1 | 150 to 154 °C
ClC1=NC(Cl)(C(Cl)(Cl)Cl)N=C1Cl | 66 to 68 °C
CCCn1c(=O)c2[nH]c(CC(C)c3ccc(OCc4ccccc4)cc3)nc2n(CCC)c1=O (stereo not given) | 124 to 126 °C
COc1ccc(S(=O)(=O)Nc2ccccc2NC(=O)c2cccnc2)cc1 | 179 to 180 °C
CCNc1ccc(C#N)cc1[N+](=O)[O-] | 130 to 132 °C
CC(ON1C(C)(C)CNC(=O)CC1(C)C)c1ccccc1 (stereo not given) | 125 to 127 °C
O=C(CCCCCOc1ccc(OCc2ccccc2)cc1)C(F)(F)F | 59 to 60 °C
O=C(Nc1cccc([N+](=O)[O-])c1)c1cccnc1Oc1cccc(C(F)(F)F)c1 | 90 to 95 °C
CC(C)(C)c1ccc(-c2nc(N)sc2-c2ccncc2)cc1 | 254 to 257 °C
CCC1=NC(NC(=O)Nc2cccc(C)c2)C(=O)N(CC(=O)N2CC3CCC(CC3)C2)c2c(C)cccc21 (stereo not given) | 130 to 133 °C

SMILES | melting point
S=C(NCCCN1CCCC1)NCCN(Cc1ccc(Cl)c(Cl)c1)c1ccc(Br)cn1 | 123 to 125 °C
COC(=O)c1cn(-c2c(Cl)cc(Cl)cc2Cl)nc1C(F)(F)F | 107 to 108 °C
O=[N+]([O-])c1cc2nc(O)c(O)nc2c2c1CCCC2 | > 300 °C
COc1ccc(-c2nnn(Cc3ccc(Cl)cc3Cl)c2N)cc1 | 156 to 159 °C
COc1cccc(NN=C(Cl)C(C)=O)c1 | 117 to 119 °C
COc1ccc(NC(=O)Nc2c(Cl)cccc2Cl)cc1OC1CCCC1 | 203 to 204 °C
CC1(C)CC(=O)c2c(C3CCC3)sc(C#N)c2C1 | 65 to 68 °C
COc1ccc(OCC2(CI)CC2)cc1 | 53 to 54 °C
CC(=O)Nc1ccccc1C(=O)Nc1cccc2cc(Br)cnc12 | 206 °C
CCOC(=O)C1=C(CO)NC(CF)=C(C(=O)OCC)C1c1cccc([N+](=O)[O-])c1 (stereo not given) | 149 to 150 °C
Cc1ccc(CSC(=S)N2Cc3[nH]c4ccccc4c3CC2C(=O)O)cc1 (stereo not given) | 188 to 190 °C
O=C(O)CCc1cn(Cc2ccc(OCc3ccc(-c4ccccc4)cn3)cc2)nc1-c1ccccc1 | 149 to 150 °C
NC(=O)c1ccc(-c2cccc3cc(Cc4cccc(C(F)(F)F)c4)sc23)cn1 | 144 to 145 °C
CCCc1c(OCCCS(=O)(=O)c2ccc(C(=O)NCC(=O)O)cc2)ccc(C(C)=O)c1O | 171 to 173 °C
Cc1c(C(N)=O)sc2cncc(Oc3ccc(Cl)cc3)c12 | 174 to 175 °C
CC(C)(C)c1cc(CCC(=O)NN)cc(C(C)(C)C)c1O | 153 to 154 °C
COc1cc2c(cc1OC)C1(C3OCCO3)CNCC2O1 (stereo not given) | 107 to 109 °C
CC(Nc1ccc2c(n1)CC1CCCCC1C2=O)c1ccccc1 (stereo not given) | 156 to 158 °C
O=C(Cn1c(-c2ccc(Cl)cc2)nc2cccnc21)Nc1ccccc1 | 240 to 242 °C
Oc1ccc(I)nc1Cl | 142 to 143 °C
Cc1c(CCCCCCC(=O)O)cccc1C(=O)c1ccc(Cl)cc1 | 84 °C
CCCCCCCCCCCCCCCCOc1nc2ccc(C)cc2c(=O)o1 | 67 °C
